In patent publication US9422285B2, “Substituted pyrazolo[1,5-A]-pyridine-3-carboxamides and use thereof” (Bayer Pharma Aktiengesellschaft, priority 2014, dated 2016):
Counter-ions that a name gives are not always drawn.

Molecular target: T1, recombinant guanylate cyclase reporter cell line (Rattus norvegicus, UniProt P19686+P20595)
T1 construct: expressed in transfected cells
T1 sequence (P19686 1-690): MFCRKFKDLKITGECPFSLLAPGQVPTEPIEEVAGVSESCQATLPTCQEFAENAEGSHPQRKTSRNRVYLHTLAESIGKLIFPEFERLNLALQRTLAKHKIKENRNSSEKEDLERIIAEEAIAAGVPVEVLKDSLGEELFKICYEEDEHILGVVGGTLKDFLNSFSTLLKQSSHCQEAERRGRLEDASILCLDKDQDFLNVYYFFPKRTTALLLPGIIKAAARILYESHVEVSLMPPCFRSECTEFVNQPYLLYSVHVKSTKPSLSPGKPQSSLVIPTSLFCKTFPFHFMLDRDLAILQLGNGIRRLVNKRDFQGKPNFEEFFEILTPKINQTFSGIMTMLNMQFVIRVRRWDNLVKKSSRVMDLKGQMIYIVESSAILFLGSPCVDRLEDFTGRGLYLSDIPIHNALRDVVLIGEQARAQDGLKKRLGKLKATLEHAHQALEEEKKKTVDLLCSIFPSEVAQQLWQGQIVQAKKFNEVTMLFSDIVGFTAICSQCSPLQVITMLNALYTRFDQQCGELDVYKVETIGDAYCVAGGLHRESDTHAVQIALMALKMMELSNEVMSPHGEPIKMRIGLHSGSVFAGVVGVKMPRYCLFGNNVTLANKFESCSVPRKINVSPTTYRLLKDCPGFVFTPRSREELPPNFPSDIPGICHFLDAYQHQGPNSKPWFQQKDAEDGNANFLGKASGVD
T1 sequence (P20595 1-619): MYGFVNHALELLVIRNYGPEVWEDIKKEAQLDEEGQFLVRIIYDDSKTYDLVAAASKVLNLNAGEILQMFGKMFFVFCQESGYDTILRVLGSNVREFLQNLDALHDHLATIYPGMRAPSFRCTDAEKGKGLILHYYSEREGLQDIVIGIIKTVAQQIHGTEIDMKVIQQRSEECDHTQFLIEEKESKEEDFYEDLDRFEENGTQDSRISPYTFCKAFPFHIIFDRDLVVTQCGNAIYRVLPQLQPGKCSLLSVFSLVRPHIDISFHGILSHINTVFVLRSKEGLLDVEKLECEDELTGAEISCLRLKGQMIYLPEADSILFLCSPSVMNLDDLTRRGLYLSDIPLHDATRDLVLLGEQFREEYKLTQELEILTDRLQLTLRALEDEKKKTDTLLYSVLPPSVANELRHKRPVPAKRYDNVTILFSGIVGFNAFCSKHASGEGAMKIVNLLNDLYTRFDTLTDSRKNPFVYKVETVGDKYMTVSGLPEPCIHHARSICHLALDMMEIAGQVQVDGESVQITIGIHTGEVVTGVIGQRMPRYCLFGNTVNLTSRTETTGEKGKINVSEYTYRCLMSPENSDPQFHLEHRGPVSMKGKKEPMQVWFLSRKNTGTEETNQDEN
Assay: Effect on a recombinant guanylate cyclase reporter cell line (B-2)
Assay type: cell-based
Conditions: in some cases mean values for individual determinations
Method: B-2. Effect on a Recombinant Guanylate Cyclase Reporter Cell Line
The cellular effect of the inventive compounds is determined using a recombinant guanylate cyclase reporter cell line, as described in F. Wunder et al., Anal. Biochem. 339, 104-112 (2005).
Representative MEC values (MEC=minimum effective concentration) for the inventive compounds are shown in the table below (in some cases as mean values for individual determinations): […]

| MEC (minimum effective concentration) [µM] | SMILES |
| --- | --- |
| 0.3 | Cc1cc(OCc2c(F)ccc(F)c2F)n2nc(C)c(C(=O)N[C@H]3CCOC3=O)c2c1 [Example 27, 2,5-Dimethyl-N-[(3S)-2-oxotetrahydrofuran-3-yl]-7-[(2,3,6-trifluorobenzyl)oxy]pyrazolo[1,5-a]pyridine-3-carboxamide] |
| 1.0 | CCC(CO)(CO)NC(=O)c1c(C)nn2c(OCc3c(F)ccc(F)c3F)cc(C)cc12 [Example 28, N-[1-Hydroxy-2-(hydroxymethyl)butan-2-yl]-2,5-dimethyl-7-[(2,3,6-trifluorobenzyl)oxy]pyrazolo[1,5-a]pyridine-3-carboxamide] |
| 1.0 | Cc1cc(OCc2c(F)ccc(F)c2F)n2nc(C)c(C(=O)NC3(c4ccc(Cl)cc4)CCCC3)c2c1 [Example 31, N-[1-(4-Chlorophenyl)cyclopentyl]-2,5-dimethyl-7-[(2,3,6-trifluorobenzyl)oxy]pyrazolo[1,5-a]pyridine-3-carboxamide] |
| 0.3 | Cc1cc(OCc2c(F)ccc(F)c2F)n2nc(C)c(C(=O)NCc3ccccc3-n3ccnc3)c2c1 [Example 32, N-[2-(1H-Imidazol-1-yl)benzyl]-2,5-dimethyl-7-[(2,3,6-trifluorobenzyl)oxy]pyrazolo[1,5-a]pyridine-3-carboxamide] |
| 3.0 | Cc1cc(OCc2c(F)ccc(F)c2F)n2nc(C)c(C(=O)Nc3cnn(CCO)c3)c2c1 [Example 33, N-[1-(2-Hydroxyethyl)-1H-pyrazol-4-yl] -2,5-dimethyl-7-[(2,3,6-trifluorobenzyl)oxy]pyrazolo[1,5-a]pyridine-3-carboxamide] |
| 1.0 | Cc1cc(OCc2c(F)ccc(F)c2F)n2nc(C)c(C(=O)NC(C#N)c3ccc(Cl)cc3)c2c1 (stereo not shown) [Example 34, N-[(4-Chlorophenyl)(cyano)methyl]-2,5-dimethyl-7-[(2,3,6-trifluorobenzyl)oxy]pyrazolo[1,5-a]pyridine-3-carboxamide] |
| 1.0 | COC(=O)[C@H]1CC[C@H](CNC(=O)c2c(C)nn3c(OCc4c(F)cccc4F)cc(C)cc23)CC1 [Example 35, Methyl trans-4-{[({7-[(2,6-difluorobenzyl)oxy]-2,5-dimethylpyrazolo[1,5-a]pyridin-3-yl}carbonyl)amino]methyl}cyclohexanecarboxylate] |
| 3.0 | Cc1cc(OCc2c(F)cccc2F)n2nc(C)c(C(=O)NC[C@H]3CC[C@H](C(=O)O)CC3)c2c1 [Example 36, trans-4-{[({7-[(2,6-Difluorobenzyl)oxy]-2,5-dimethylpyrazolo[1,5-a]pyridin-3-yl}carbonyl)amino]methyl}cyclohexanecarboxylic Acid] |
| 10 | Cc1cc(OCc2c(F)cccc2F)n2nc(C)c(C(=O)N[C@@H](CC(=O)OC(C)(C)C)CC(C)C)c2c1 [Example 37, tert-Butyl (3R)-3-[({7-[(2,6-difluorobenzyl)oxy]-2,5-dimethylpyrazolo[1,5-a]pyridin-3-yl}carbonyl)amino]-5-methylhexanoate] |
| 3.0 | Cc1cc(OCc2c(F)cccc2F)n2nc(C)c(C(=O)N[C@@H](CC(=O)O)CC(C)C)c2c1 [Example 38, (3R)-3-[({7-[(2,6-Difluorobenzyl)oxy]-2,5-dimethylpyrazolo[1,5-a]pyridin-3-yl}carbonyl)amino]-5-methylhexanoic Acid] |
| 3.0 | Cc1cc(OCc2c(F)cccc2F)n2nc(C)c(C(=O)NCC3(N)COC3)c2c1 [Example 60, N-[(3-Aminooxetan-3-yl)methyl]-7-[(2,6-difluorobenzyl)oxy]-2,5-dimethylpyrazolo[1,5-a]pyridine-3-carboxamide] |
| 10 | Cc1cc(OCc2c(F)cccc2F)n2nc(C)c(C(=O)NCCS(N)(=O)=O)c2c1 [Example 61, 7-[(2,6-Difluorobenzyl)oxy]-2,5-dimethyl-N-(2-sulphamoylethyl)pyrazolo[1,5-a]pyridine-3-carboxamide] |
| 3.0 | Cc1cc(OCc2c(F)cccc2F)n2nc(C)c(C(=O)NCC3CCC(C#N)CC3)c2c1 (stereo not shown) [Example 62, N-[(4-Cyanocyclohexyl)methyl]-7-[(2,6-difluorobenzyl)oxy]-2,5-dimethylpyrazolo[1,5-a]pyridine-3-carboxamide] |
| 1.0 | Cc1cc(OCc2c(F)cccc2F)n2nc(C)c(C(=O)NCCCCCC#N)c2c1 [Example 63, N-(5-Cyanopentyl)-7-[(2,6-difluorobenzyl)oxy]-2,5-dimethylpyrazolo[1,5-a]pyridine-3-carboxamide] |
| 3.0 | Cc1cc(OCc2c(F)cccc2F)n2nc(C)c(C(=O)NOCCO)c2c1 [Example 64, 7-[(2,6-Difluorobenzyl)oxy]-N-(2-hydroxyethoxy)-2,5-dimethylpyrazolo[1,5-a]pyridine-3-carboxamide trifluoroacetate] |
| 3.0 | C=CCONC(=O)c1c(C)nn2c(OCc3c(F)cccc3F)cc(C)cc12 [Example 65, N-(Allyloxy)-7-[(2,6-difluorobenzyl)oxy]-2,5-dimethylpyrazolo[1,5-a]pyridine-3-carboxamide trifluoroacetate] |
| 0.3 | Cc1cc(OCc2c(F)cccc2F)n2nc(C)c(C(=O)NNc3ccc(F)cc3)c2c1 [Example 66, 7-[(2,6-Difluorobenzyl)oxy]-N′-(4-fluorophenyl)-2,5-dimethylpyrazolo[1,5-a]pyridine-3-carbohydrazide trifluoroacetate] |
| 3.0 | Cc1cc(OCc2c(F)cccc2F)n2nc(C)c(C(=O)NNC(=O)CN(C)C)c2c1 [Example 67, 7-[(2,6-Difluorobenzyl)oxy]-N′-[(dimethylamino)acetyl]-2,5-dimethylpyrazolo[1,5-a]pyridine-3-carbohydrazide] |
| 10 | Cc1cc(OCc2c(F)cccc2F)n2nc(C)c(C(=O)NNC3CCCC3O)c2c1 (stereo not shown) [Example 68, 7-[(2,6-Difluorobenzyl)oxy]-N′-(2-hydroxycyclopentyl)-2,5-dimethylpyrazolo[1,5-a]pyridine-3-carbohydrazide trifluoroacetate] |
| 3.0 | Cc1cc(OCc2c(F)cccc2F)n2nc(C)c(C(=O)NC3Cc4ccccc4C3N)c2c1 (stereo not shown) [Example 70, N-(1-Amino-2,3-dihydro-1H-inden-2-yl)-7-[(2,6-difluorobenzyl)oxy]-2,5-dimethylpyrazolo[1,5-a]pyridine-3-carboxamide] |
| 0.3 | Cc1cc(OCc2c(F)cccc2F)n2nc(C)c(C(=O)N[C@H]3c4ccccc4C[C@H]3O)c2c1 [Example 71, 7-[(2,6-Difluorobenzyl)oxy]-N-[(1S,2R)-2-hydroxy-2,3-dihydro-1H-inden-1-yl]-2,5-dimethylpyrazolo[1,5-a]pyridine-3-carboxamide trifluoroacetate] |

| SMILES | MEC (minimum effective concentration) [µM] |
| --- | --- |
| Cc1cc(OCc2c(F)ccc(F)c2F)n2nc(C)c(C(=O)NC3CC4CCCC(C3)N4C)c2c1 (stereo not shown) [Example 29, 2,5-Dimethyl-N-(9-methyl-9-azabicyclo[3.3.1]non-3-yl)-7-[(2,3,6-trifluorobenzyl)oxy]pyrazolo[1,5-a]pyridine-3-carboxamide] | 0.3 |
